Source: PubChem BioAssay AID624129 (Sanford-Burnham Center for Chemical Genomics, 2012)
The source made the active and inactive calls. How the calls were made is not given here.

Assays:
Assay in all cases: potency against CXCR6 with APJ panel – cell-based, beta-arrestin, DiscoveRx, uHTS hits, dose response (AID 624129)
[1] = target: Apelin receptor (Homo sapiens) (UniProt P35414); details: CXCR6 beta-arrestin (DiscoveRx) antagonist cell assay, APJ
[2] = target: Beta-galactosidase (Escherichia coli) (UniProt Q8VNN2); details: CXCR6 beta-arrestin (DiscoveRx) antagonist cell assay, b-galactosidase
Beta-galactosidase (Escherichia coli), sequence (Q8VNN2 whole entry, looked up): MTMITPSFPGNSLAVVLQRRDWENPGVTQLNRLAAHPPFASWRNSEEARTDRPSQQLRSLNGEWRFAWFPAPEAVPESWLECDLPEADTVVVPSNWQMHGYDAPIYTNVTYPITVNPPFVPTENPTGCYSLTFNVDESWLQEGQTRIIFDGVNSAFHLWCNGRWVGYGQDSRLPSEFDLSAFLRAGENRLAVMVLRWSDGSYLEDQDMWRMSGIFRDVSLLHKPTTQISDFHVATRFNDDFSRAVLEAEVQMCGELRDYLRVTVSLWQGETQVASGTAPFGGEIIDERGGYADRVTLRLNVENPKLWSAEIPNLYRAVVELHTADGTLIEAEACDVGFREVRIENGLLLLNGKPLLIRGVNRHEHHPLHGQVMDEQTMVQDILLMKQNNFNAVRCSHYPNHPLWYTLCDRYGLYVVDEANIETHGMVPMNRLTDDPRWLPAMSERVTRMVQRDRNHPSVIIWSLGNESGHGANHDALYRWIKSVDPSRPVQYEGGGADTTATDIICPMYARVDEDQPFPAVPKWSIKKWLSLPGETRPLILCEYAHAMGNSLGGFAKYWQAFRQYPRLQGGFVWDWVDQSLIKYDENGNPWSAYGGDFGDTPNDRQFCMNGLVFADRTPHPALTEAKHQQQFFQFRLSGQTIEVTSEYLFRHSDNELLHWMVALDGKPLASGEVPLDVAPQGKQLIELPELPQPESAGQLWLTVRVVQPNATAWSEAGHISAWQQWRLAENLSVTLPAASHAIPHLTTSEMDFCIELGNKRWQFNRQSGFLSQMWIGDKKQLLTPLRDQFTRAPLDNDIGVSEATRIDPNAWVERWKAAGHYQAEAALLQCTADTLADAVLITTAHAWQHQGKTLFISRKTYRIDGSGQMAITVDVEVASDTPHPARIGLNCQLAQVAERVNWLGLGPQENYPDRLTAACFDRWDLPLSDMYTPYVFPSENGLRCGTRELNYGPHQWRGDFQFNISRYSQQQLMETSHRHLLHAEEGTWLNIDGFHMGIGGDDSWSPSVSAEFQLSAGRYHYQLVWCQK

[3] = target: C-C chemokine receptor type 6 (Homo sapiens) (UniProt P51684); details: CXCR6 beta-arrestin (DiscoveRx) antagonist cell assay
[4] = target: C-X-C chemokine receptor type 6 (Homo sapiens) (UniProt O00574); details: CXCR6 beta-arrestin (DiscoveRx) antagonist cell assay; for inhibition: CXCR6, run 1, dose range 2, at 80 µM (top of the series)
C-X-C chemokine receptor type 6 (Homo sapiens), sequence (O00574 whole entry, looked up): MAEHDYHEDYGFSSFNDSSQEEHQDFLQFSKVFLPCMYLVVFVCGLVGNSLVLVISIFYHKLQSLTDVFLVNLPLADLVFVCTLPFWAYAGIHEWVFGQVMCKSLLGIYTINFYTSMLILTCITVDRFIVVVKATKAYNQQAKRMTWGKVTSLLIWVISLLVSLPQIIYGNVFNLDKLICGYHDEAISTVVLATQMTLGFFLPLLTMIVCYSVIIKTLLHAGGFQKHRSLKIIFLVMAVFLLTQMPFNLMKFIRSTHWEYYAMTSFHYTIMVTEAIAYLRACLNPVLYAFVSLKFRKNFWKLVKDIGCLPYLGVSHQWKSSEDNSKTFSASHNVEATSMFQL

[5] = dose range 1, mean IC50 across replicates
[6] = CCR6, dose range 1, mean IC50 across replicates
[7] = CXCR6, dose range 1, mean IC50 across replicates

Row | SMILES | IC50 ([1]; dose range 1) | IC50 [1, 5] [µM] | IC50 ([1]; run 2, dose range 1) [µM] | IC50 ([1]; run 3, dose range 1) [µM] | IC50 ([2]; dose range 1) | IC50 [2, 5] [µM] | IC50 ([3]; CCR6, dose range 1) [µM] | IC50 [3, 6] [µM] | IC50 ([3]; CCR6, run 2, dose range 1) [µM] | IC50 ([4]; CXCR6, dose range 1) | IC50 [4, 7] [µM] | IC50 ([4]; CXCR6, run 1, dose range 2) [µM] | IC50 ([4]; CXCR6, run 2, dose range 1) [µM] | IC50 ([4]; CXCR6, run 2, dose range 2) [µM] | inhibition [4] [%]
1 | COc1ccc(-c2csc(Cc3nc(O)cs3)n2)cc1 | 4.5 µM | 4.96 | 5.92 | 4.47 | > 80 µM (inactive) | > 80 | 2.8 | 3.45 | 4.1 | 4.12 µM | 4.09 | 3.66 | 4.68 | 3.91 | 
2 | CNc1ccc2oc(C[C@H]3O[C@@]4(CC[C@H]3C)O[C@H]([C@H](C)C(=O)c3ccc[nH]3)[C@H](C)C[C@H]4C)nc2c1C(=O)O | 10.9 µM | 11.7 | 12.4 | > 80 | > 80 µM (inactive) | > 80 | 6.14 | 6.15 | 6.16 | 5.85 µM | 8.6 | 6.42 | 7.09 | 15 | 
3 | CC(=O)/C(=N\Nc1ccc(Cl)cc1Cl)Sc1cccc2cccnc12 | 2.83 µM | 3.28 | 3.64 | 3.36 | > 80 µM (inactive) | > 80 | 3.37 | 3.94 | 4.51 | 5.34 µM | 4.07 | 2.66 | 5.55 | 2.73 | 
4 | O=C1CN(C(=O)CSc2nc3cc(Cl)ccc3c(=O)n2Cc2ccccc2)c2ccccc2N1 | > 80 µM (inactive) | > 80 | > 80 | > 80 | > 80 µM (inactive) | > 80 | 9.4 | 11.1 | 12.7 |  | 8.57 | 9.5 | > 80 | 7.63 | 
5 | COc1ccc(OC)c(/C=C/c2ccc3cccc(O)c3n2)c1 | 6.47 µM | 8.4 | 10.3 | 8.46 | > 80 µM (inactive) | > 80 | 3.73 | 5.88 | 8.03 | 4.15 µM | 5.39 | 5.17 | 5.26 | 6.98 | 
6 | CCN(CC)CC(C)(C)C(=O)/C=C/c1ccc(/C=C/C(=O)C(C)(C)CN(CC)CC)cc1 | 4.46 µM | 4.05 | 3.91 | 3.78 | > 80 µM (inactive) | > 80 | 2.76 | 2.87 | 2.98 | 3.11 µM | 3.27 | 3.64 | 2.99 | 3.35 | 
7 | N#CC(C#N)=C1C=CC=CN1/C(=C\c1ccccc1Cl)C(=O)c1ccccc1 | 14.4 µM | 14.5 | 11.7 | 17.5 | > 80 µM (inactive) | > 80 | 7.75 | 6.75 | 5.76 | 7.69 µM | 9.06 | 9.82 | 7.88 | 10.8 | 
8 | O=C(NNC(=O)C12CC3CC(CC(C3)C1)C2)c1ccccn1 | 10.3 µM | 9.16 | 8.53 | 8.62 | > 80 µM (inactive) | > 80 | 8.92 | 8.58 | 8.23 | 18.7 µM | 10.9 | 5.57 | 8.52 | 10.9 | 
9 | Oc1cccc2ccc(/C=C/c3c(F)cccc3Cl)nc12 | 6.69 µM | 15.4 | 11.2 | 28.2 | > 80 µM (inactive) | > 80 | 5.94 | 5.8 | 5.66 | 6.4 µM | 5.43 | 3.78 | 6.67 | 4.85 | 
10 | COc1cc2c(cc1OC)C1(CCCC1)CNC2c1cccc([N+](=O)[O-])c1 (stereo not drawn) | 19.9 µM | 21.9 | 21 | 24.6 | > 80 µM (inactive) | > 80 | 11.9 | 12.4 | 13 | inactive | 14.1 |  | 12 |  | 126
11 | CN(C)c1nc(=NCc2cccs2)ss1 | 3.71 µM | 3.68 | > 80 | 3.66 | > 80 µM (inactive) | > 80 | 3.66 | 2.37 | 1.07 | 4.99 µM | 5.43 |  | 5.86 |  | 53
12 | CN(C)C(=O)CSc1cccc2cccnc12 |  | > 80 | > 80 | > 80 | > 80 µM (inactive) | > 80 |  | > 80 | > 80 | > 80 µM (inactive) | > 80 |  | > 80 |  | -25
13 | CC(Oc1cccc(Cl)c1)C(=O)Nc1nc(-c2ccccn2)cs1 (stereo not drawn) | 8.02 µM | 8.47 | 8.75 | 8.64 | > 80 µM (inactive) | > 80 | 6.82 | 7.6 | 8.37 | 8.97 µM | 7.17 | 5.61 | 7.93 | 6.18 | 
14 | C=C1C(=O)OC2C1CCC(C)=C1C(=O)C3OC3(C)C12 (stereo not drawn) | 10.9 µM | 10.9 | 11.2 | 10.6 | > 80 µM (inactive) | > 80 | 6.5 | 6.87 | 7.24 | 12.7 µM | 10.3 | 10.1 | 9.67 | 8.85 | 
15 | CC(C)(C)c1ccc(-n2nc(C#N)c(Cl)cc2=O)cc1 | 7.12 µM | 7.86 | 5.54 | 10.9 | > 80 µM (inactive) | > 80 | 3.8 | 5.45 | 7.1 | 11.5 µM | 8.28 | 5.14 | 8.56 | 7.92 | 
16 | CC(=O)Nc1ccc(NC(=O)c2nc(S(=O)(=O)Cc3cccc(C)c3)ncc2Cl)cc1 | 7.19 µM | 8.89 | 10.8 | 8.71 | > 80 µM (inactive) | > 80 | 6.61 | 5.6 | 4.59 |  | 4.95 |  | 4.95 |  | 23.1
17 | COc1ccc(-n2c(O)c(/C=N/Nc3nc(C)cc(C)n3)c3ccccc3c2=O)cc1OC |  | 49.6 | > 80 | 49.6 | > 80 µM (inactive) | > 80 | 31.3 | 29.2 | 27.2 | > 80 µM (inactive) | > 80 |  | > 80 |  | 118
